Reference: patent US10420819B2 (Extend Biosciences, Inc., priority 2014, dated 2019)

Key:
blood glucose levels = assay: Blood glucose lowering pharmacodynamics in rats (Amplex Red Glucose/Glucose Oxidase Assay); assay type: in vivo; conditions: intravenous administration (FIG. 6)
Method: Blood glucose levels were determined in rats injected with free glucose and the conjugates using the Amplex Red Glucose/Glucose Oxidase Assay Kit (Invitrogen, Carlsbad, Calif., Cat. No. A22189).

[1] = rat

20K-PEG-insulin: 20 kD PEG-NHS conjugated to human insulin, one 20 kD PEG; benchmark therapeutic (see EP2288375)
blood glucose lowering ability in vivo (blood glucose levels): did not display significant glucose lowering ability for an extended time | in vivo half life [1]: improved the in vivo half life

VitD-(25)-PEG2K-insulin: 2 KDa PEG scaffold on carbon 25 of vitamin D, carrier conjugated to lysine 29 on the insulin B-chain
duration of stably reduced blood glucose levels (blood glucose levels): approximately eight | in vivo half life [1]: improved the in vivo half life
